This note sets out measurements from patent publication US20160033480A1, “Immunovir and Components, Immunovir A, B, C, D Utility and Useful Processes” (priority 2013, published 2016).

In one assay the test system is mMφ/Mo. In words: Effect on mice macrophages/mononuclear cells activities in vivo after CP immunosuppression. The settings on record: immunovirs 10 mg/kg or AZT 20 mg/kg via tail vein day 2 to 5; CP-treated mice; FIG. 5. The procedure:
Two mice of each group were injected with 10 mg/kg.b.w of immunovir (O, mixture), immunovir A, B, C, D, or 20 mg/kg.b.w of AZT via tail vein in the afternoon from day 2 to day 5, respectively. Each mouse's abdominal cavity was injected with 0.5 mL of RTAC in the afternoon of day 5, and mMφ/Mo were collected from each mouse's abdominal cavity with 10 mL of R7 1⁄2C in the afternoon of day 6. Basal medium rich in deposit cells were taken, and 0.40 mL was pipetted into two wells of flat-bottomed 24-well Falcon culture dish. After incubation with 5% CO2 for 6 hours, 0.10 mL of cRBC (1%) was added into each well and incubation was carried out for 6 hours or overnight. Then suspended cells, i.e., cRBC, were sucked out, the well was gently washed with 0.5 mL of RPMI 1640, and 0.40 mL of RBMI 1640 and 5 ul of Liu Stain B solution were added again to stain mMφ, whereas cRBCs were unstainable. CP immuno suppression was removed by Immunovir(mix), Immunovir […]. but not AZT in mouse's body, and the efficacy of Mφ/Mo activity increased as shown in FIG. 5.

For another assay, the system named is HIV1. The experiment in a line: Anti-HIV1 activity in human venous blood mononuclear cells (HIV1P24 expression). The format is cell-based. To be noted: 21 days culture; FIG. 6. The procedure:
Mononuclear cells derived from human venous blood (1×10^7 cells/0.80 mL) were suspended in capped Greiner incubation tube with R20C containing 40 ug/mL rIL-2, and 0.10 mL of immunovir (40 ug/mL or diluted with 4 fold) or, as a comparison, AZT (100, 10, or 1 ug/mL), then incubated in 5% CO2 incubator at 36-37° C. for 21 days.
Cells were precipitated by centrifugation (250 g, 5 minutes) every 3 days, and culture medium were replaced to fresh ones with identical ingredients. For antigen expression, cells were stained by mouse anti-HIV1P24 IgG1 and rabbit anti-mouse IgG1-FITC.
The percentage of cells with HIV1P24 gag gene expression, i.e., the ratio of fluorescent cells detected by indirect fluorescent antibody technique was calculated.

In a further assay the test system is Yac-1 cells. The experiment in a line: Mononuclear killer cell activity derived from mouse's spleen (51Cr release from Yac-1 cells). The format is in vivo, BALB/c mice. To be noted: CP 200 and 100 mg/kg day 1 and 2; immunovir 10 mg/kg every day; spleens day 7.
Assay [1] has as its system guinea pig peritoneal derived adherent macrophages (gMφ). The experiment in a line: Effect on cellular immunity in vitro: gMφ killer cell activity against cRBC with or without cyclophosphamide. The format is cell-based. To be noted: second 20-hours incubation without CP; FIG. 4-1.
Text: The effector (killer) cells for this experiment were adherent macrophages (gMφ) derived from guinea pig's peritoneal fluid cultured with RTAG (RPMI 1640 enriched with 7.5% v/v guinea pig serum). Cyclophosphamide (CP) was used as an immunosuppressive agent. Chicken red blood cells (cRBC) as target cells.
The experiment consisted of four series of experiments: gMφ+cRBC, gMφ+Imm+cRBC, gMφ+CP+cRBC, and gMφ+CP+Imm+cRBC, and immunovir (Imm) as immune response modifier.
A 200 to 250 g guinea pig was injected with 1 mL of thioglycolate medium, after 20 hours adherent macrophages derived from abdominal cavity (gMφ) were collected by aid of RPMI 1640, suspended in RTAG, then 0.9 mL of solution was pipetted into thirteen Falcon 12-well culture plates. The plates for group 1 and 2 to group 4 were 1 and 3, respectively. […] In other words, each well was filled with 1 ug/mL CP in group 2, 10 ug/mL in group 3, and 100 ug/mL in group 4. After incubation in a 5% CO2 incubator (35-37° C.), the medium in each well was replaced with fresh R7½G from group 1 (only 1 plate for control) to group 4. Then Imm was added from lane 1 to lane 4 (3 wells per lane) that the final concentration were 0, 0.1, 1, and 10 ug/mL, respectively. That was to say, from group 2 to group 4, lane 1 was a CP control, and lane 1 in plate 1 was gMφ control. […]
Assay [2] is described as follows: Bioactivity of separated immunovir components (test not specified).
The test system of another assay is cRBC. The experiment in a line: Hemagglutination activity. It counts as cell-based, chicken. To be noted: 0.4% v/v cRBC, room temperature, 2 hours. The procedure: Immunovir A, B, C, and D, or concanavalin A with different concentrations were added into 2 mL of normal saline 0.4% v/v cRBC suspension in Kahn tube. The solution was mixed thoroughly and kept at room temperature for 2 hours to observe hema-agglutination.

Experimental for Yac-1 cells: Twenty male BALB/c mice aged 8 weeks were divided into group A, B, C, and D. Mice in group A were injected with 0.20 mL of normal saline intravenously. […] Group C received immunovir 10 mg/kg.b.w every day. Group D received CP as group B and immunovir as Group C. All mice's spleens were excised at day 7 and spleen-derived mononuclear cells were isolated by Ficol-paque centrifugation.
Yac-1 cells (2×10^6/mL) were labeled with R20C containing 1 uc/mL of ^51Cr-chromate for 60 minutes at 37° C.
Mouse's spleen-derived mononuclear cells (killer cells) (3×10^6) and ^51Cr-chromate-labeled Yac-1 cells (6×10^6) were suspended altogether in 1.0 mL of R20C medium and incubated at 37° C. for 150 minutes, centrifuged with 250 g for 10 minutes, then 0.50 mL of supernatant was taken and dried in the bottle.
Radioactivity was measured by liquid scintillation and toluene-PPO-POPOP was used as a scintillant.

Regarding `Cc1cn([C@H]2C[C@H](N=[N+]=[N-])[C@@H](CO)O2)c(=O)[nH]c1=O` [AZT], the “removal of CP immuno suppression in mouse's body (Mφ/Mo activity)” value with mMφ/Mo is “not”. The anti-HIV1 activities compared result with HIV1 was “approximately the same”. `O=P1(N(CCCl)CCCl)NCCCO1` (stereo not drawn) [CP, Cyclophosphamide]: in the assay on Yac-1 cells, the “radioactivity released (51Cr from Yac-1 cells)” value is on record as “inhibited”. Moreover, in assay [1], the “activity of gMφ after removal of CP” value is listed as “unrecoverable”. Regarding `CO[C@H]1O[C@H](CO)[C@@H](O)[C@H](O)[C@@H]1O` [methyl-a-mannopyranoside], the bioactivity entry in assay [2] is recorded as “low bioactivity”.

With concanavalin A, the “nature of hema-agglutination of cRBC (resuspension by shaking)” value in the assay on cRBC is “firmly agglutinated with concanavalin A and could not be resuspended by shaking”.
